# Source: patent US9095617B2, “Surgical adjuvant composition and associated methods of use” (Soteria Industries, Inc., priority 2010, dated 2015)
# System: Bovine chondrocytes
# Assay: Viability of isolated chondrocytes suspended 12 hrs at 37° C. in various solutions (membrane integrity dyes)
# Format: cell-based
# Settings: bupivacaine 1.25 mg/mL [0.125%]
# Description: FIG. 7: Bovine chondrocytes suspended for 12 hrs. at 37° C. in various solutions of phosphate buffered saline (PBS), bupivacaine (1.25 mg/mL [0.125%]), arthroguard and saline. In these experiments, 2.5 mg/mL [0.25%] bupivacaine was combined with arthroguard to yield a final concentration of 1.25 mg/mL [0.125%] bupivacaine in arthroguard. for 12 hrs. Cell viability is assessed by membrane integrity dyes.
smiles,measurement,value
"CCCCN1CCCCC1C(=O)Nc1c(C)cccc1C (stereo not shown) [bupivicaine, bupivacaine]",amount of cell death of isolated chondrocytes exposed to bupivicaine,increases the amount of cell death
